This is an account of results in ChEMBL document CHEMBL1156379, “Furanosesquiterpenoids of Commiphora myrrha” (J Nat Prod, 2001).

SMILES strings stand for the structures.

For this assay, the system named is MCF7. Description: Cytotoxicity against human MCF7 cells after 15 days by clonogenic assay. Type of assay: functional, cell-based.

The term IC50 denotes the midpoint of a concentration-inhibition curve. As for `C=C1Cc2occ(C)c2C(=O)C[C@H](C)C[C@@H]2O[C@@H]12` (relative stereo), the IC50 (Homo sapiens, MCF7, 360 h, read-out: IC50) stood at 40 µM. Turning to `CO[C@H]1/C=C(\C)Cc2occ(C)c2C(=O)C[C@H](C)C1` (relative stereo), the IC50 result (mcf7) is listed as “Not Active”. The same measure, in the same setting: then `CO[C@H]1/C=C(/C)Cc2occ(C)c2C(=O)[C@@H](OC(C)=O)[C@H](C)C1` (relative stereo), with “Not Active”. For the compound `C=C1/C=C/[C@H](OC)[C@@H](C)CC(=O)c2c(C)coc2C1` (relative stereo), the IC50 result (mcf7) is “Not Active”.
